Columns and labels:
BaF3-D835Y = molecular target: T1, BaF3-D835Y (Homo sapiens, UniProt P36888, D835Y, cells depend on it); assay: MTS cellular proliferation assay; assay type: cell-based; conditions: 72 hour incubation, read-out: Growth inhibitory activity (in vivo EC50 nM)
T1 sequence (P36888 1-993 D835Y): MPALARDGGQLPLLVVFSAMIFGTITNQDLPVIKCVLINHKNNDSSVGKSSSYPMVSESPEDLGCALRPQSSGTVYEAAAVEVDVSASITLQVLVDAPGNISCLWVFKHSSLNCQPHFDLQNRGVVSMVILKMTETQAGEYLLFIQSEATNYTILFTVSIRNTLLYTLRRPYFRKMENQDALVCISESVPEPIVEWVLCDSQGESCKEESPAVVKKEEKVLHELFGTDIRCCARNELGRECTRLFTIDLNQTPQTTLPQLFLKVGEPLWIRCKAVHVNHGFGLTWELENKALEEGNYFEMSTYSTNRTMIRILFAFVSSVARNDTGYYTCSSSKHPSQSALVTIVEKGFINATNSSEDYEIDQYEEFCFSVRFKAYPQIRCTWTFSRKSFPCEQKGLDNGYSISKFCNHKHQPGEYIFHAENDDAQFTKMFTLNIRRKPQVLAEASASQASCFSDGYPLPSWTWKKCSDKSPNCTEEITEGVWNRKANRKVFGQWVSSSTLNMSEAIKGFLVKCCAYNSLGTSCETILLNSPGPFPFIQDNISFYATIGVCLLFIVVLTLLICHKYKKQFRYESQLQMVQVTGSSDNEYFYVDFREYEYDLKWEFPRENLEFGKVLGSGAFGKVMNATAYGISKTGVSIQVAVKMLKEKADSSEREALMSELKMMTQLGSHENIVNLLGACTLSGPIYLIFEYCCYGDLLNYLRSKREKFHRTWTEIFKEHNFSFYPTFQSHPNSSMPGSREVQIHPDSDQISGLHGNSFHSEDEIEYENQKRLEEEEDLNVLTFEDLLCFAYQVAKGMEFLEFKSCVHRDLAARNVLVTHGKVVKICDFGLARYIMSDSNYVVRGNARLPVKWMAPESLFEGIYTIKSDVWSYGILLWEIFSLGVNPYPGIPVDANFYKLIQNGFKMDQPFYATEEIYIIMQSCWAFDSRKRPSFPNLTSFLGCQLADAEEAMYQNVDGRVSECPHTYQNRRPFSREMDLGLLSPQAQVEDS
Text: (§1) The viability of Flt3 expressing cells can be evaluated using a tetrazolium salt reduction cell-based assay. […] BaF3, both wild type and mutant, as well as transfected strains, MV4-11 and MOLM14 are well-characterized Flt3-dependent humanized or human cell lines which express active Flt3 receptors (see, Yee et al. Blood (2002)100 (8):2941-2949; Levis et al. (2002) 99(11): 3885-3891). These cell lines were used to determine the ability of the compounds provided herein to inhibit Flt3 in intact cells. In each case, and by methods known to those practiced in the art of cell culture, proliferation was measured after 72 hour incubation with the compounds provided herein using a standard MTS protocol (Promega Cat #5430 “Cell Titer 96 Aqueous Non-radioactive Cell Proliferation Assay”).
(§2) In general, cells were plated at 10,000-20,000 cells per well in DMEM medium with 0.5% serum. The compound plate was set up by aliquoting into column 1 of a 96 well 300 ul polypropylene plate, the negative control (DMSO), aliquoting into column 12 the positive control and titrating the test compound in serial dilutions into columns 2-1 l. An aliquot from each well of the compound plate was transferred to the plated cells and then incubated @ […] in 5% CO2. [00538] MTS tetrazolium compound (Owen's reagent) was thawed in a H2O bath. 20 μl of MTS tetrazolium was added to each well of optical plate and the cells were incubated @ 37° C. in 5% CO2 for 2 hours. The absorbance measured at 490 nm using a microplate reader.

MOLM14 = assay: MTS cellular proliferation assay; assay type: cell-based; conditions: Homo sapiens, MOLM-14, 72 hour incubation, read-out: Growth inhibitory activity (in vivo EC50 nM)
Text: as §1, §2

FLT3 = molecular target: T2, FLT3 (Homo sapiens, UniProt P36888); assay: Kinase EC50 (10 pt curve or estimate, ATP Kmapp); assay type: biochemical; conditions: from 10 pt curve or estimate based on 1 μm inhibition assay at ATP Kmapp
T2 construct: purchased Invitrogen (SelectScreen platform)
T2 sequence (P36888 27-993): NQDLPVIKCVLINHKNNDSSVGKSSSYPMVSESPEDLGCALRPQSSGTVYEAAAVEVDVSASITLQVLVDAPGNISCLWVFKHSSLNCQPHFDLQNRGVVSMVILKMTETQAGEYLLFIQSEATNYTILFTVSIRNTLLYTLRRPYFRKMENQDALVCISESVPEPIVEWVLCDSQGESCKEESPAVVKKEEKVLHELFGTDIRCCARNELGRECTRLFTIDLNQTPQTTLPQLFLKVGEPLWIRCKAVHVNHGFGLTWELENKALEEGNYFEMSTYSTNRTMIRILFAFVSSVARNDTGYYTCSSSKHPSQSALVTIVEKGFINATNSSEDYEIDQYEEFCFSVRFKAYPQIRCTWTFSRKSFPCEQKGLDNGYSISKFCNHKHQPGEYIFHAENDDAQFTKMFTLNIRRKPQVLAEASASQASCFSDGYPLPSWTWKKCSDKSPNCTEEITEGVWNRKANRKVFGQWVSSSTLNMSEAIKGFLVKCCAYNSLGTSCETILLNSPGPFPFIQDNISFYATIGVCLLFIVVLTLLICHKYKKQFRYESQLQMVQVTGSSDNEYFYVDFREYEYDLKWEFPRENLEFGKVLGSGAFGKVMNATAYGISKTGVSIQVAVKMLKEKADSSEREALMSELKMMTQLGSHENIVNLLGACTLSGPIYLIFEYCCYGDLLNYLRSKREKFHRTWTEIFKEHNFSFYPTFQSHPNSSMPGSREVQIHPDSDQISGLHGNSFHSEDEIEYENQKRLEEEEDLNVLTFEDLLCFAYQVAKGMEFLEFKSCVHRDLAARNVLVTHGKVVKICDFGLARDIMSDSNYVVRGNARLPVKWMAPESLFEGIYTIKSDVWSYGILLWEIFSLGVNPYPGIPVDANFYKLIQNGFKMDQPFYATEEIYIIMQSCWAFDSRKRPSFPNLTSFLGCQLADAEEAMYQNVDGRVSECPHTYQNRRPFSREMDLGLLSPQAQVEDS

Row | EC50 (BaF3-D835Y) [nM] | EC50 (MOLM14) [nM] | EC50 (FLT3) [nM] | SMILES
1 | 887 |  |  | CN(C)CCCCCNc1ccc2ncn3c4ccc5[nH]ncc5c4c(=O)c1c23 [(III)]
2 | 723 | 82 |  | CN(C)c1ccc2ncn3c4ccc5[nH]ncc5c4c(=O)c1c23 [(IX)]
3 | 171 | 84 |  | CCN(CC)c1ccc2ncn3c4ccc5[nH]ncc5c4c(=O)c1c23 [(VI)]
4 | 158 | 60 |  | CNc1ccc2ncn3c4ccc5[nH]ncc5c4c(=O)c1c23 [(VII)]
5 | 129 | 627 |  | CCN(CC)CCNc1ccc2ncn3c4ccc5[nH]ncc5c4c(=O)c1c23 [(VIII)]
6 | 79 | 90 | 11 | O=c1c2c(NCCCN3CCOCC3)ccc3ncn(c4ccc5[nH]ncc5c14)c32 [(X)]
7 |  |  | 5 | CN(C)CCNc1ccc2ncn3c4ccc5[nH]ncc5c4c(=O)c1c23 [(XII)]
8 |  |  | 9 | CC(CCN1CCOCC1)Nc1ccc2ncn3c4ccc5[nH]ncc5c4c(=O)c1c23 (stereo not shown) [(XVI)]
9 |  |  | 15 | CN1CCN(CCCNc2ccc3ncn4c5ccc6[nH]ncc6c5c(=O)c2c34)CC1 [(XVII)]
10 | 13 |  | 14 | CN(C)CCCNc1ccc2ncn3c4ccc5[nH]ncc5c4c(=O)c1c23 [Compound (IV)]
11 | 172 | 333 |  | O=c1c2c(NCCN3CCOCC3)ccc3ncn(c4ccc5[nH]ncc5c14)c32 [Compound (V)]
12 |  |  | 11 | CCN(CC)CCCNc1ccc2ncn3c4ccc5[nH]ncc5c4c(=O)c1c23 [Compound (XV)]

Row | SMILES | EC50 (BaF3-D835Y) [nM] | EC50 (MOLM14) [nM] | EC50 (FLT3) [nM]
13 | CCN(CC)CCNc1ccc2ncn3c4ccc(O)cc4c(=O)c1c23 [Symadex, 5-(2-(diethylamino)ethylamino)-8-hydroxy-6H-imidazo[4,5,1-de]acridin-6-one, reference compound] | 8.9 |  | 40

— patent publication US20100292231A1, “Indazole Compounds for Treating Inflammatory Disorders, Demyelinating Disorders and Cancers” (priority 2007, published 2010)
